Broadly, the pIC50 is −log10 of the IC50, conventionally taken in molar units.

pIC50: −log10 of the molar value. Several values for one entry are separate records, joined by “and”; a condition that tells them apart may be missing. Identical values can stand only once. Like-named read-outs stand apart in the source and are kept apart here. Marks after values point to notes of the source that are not given here.

Assay [1] deals with DC-3F/ADII. The assay is described as follows: SRB cytotoxicity, DC-3F/ADII. The note with it: Table 3; read-out: IC50. Format: cell-based, hamster. The protocol: (§1) The DC-3F hamster lung fibroblast cell line and its actinomycin D-selected sublines (DC-3F/ADII and DC-3F/ADX) were obtained from the Memorial Sloan-Kettering Cancer Center (MSKCC).
(§2) The drug-resistant cell lines were continuously cultured in the presence of the selecting agent, AD, DX, VBL or VM to maintain the drug resistant phenotypes. […] All cells were cultured in RPMI 1640-10% FBS at 37° C. 5% CO2 (see below).
(§3) The cytotoxicity of the drug toward the monolayer cell cultures (such as DC-3F, MCF-7, SK-N-As and sublines) was determined in 96-well microtiter plates by the SRB method as described by Skehan and co-workers (Skehan, P., et al., J. Natl. Cancer Inst. 1990, 82, 1107-1112) for measuring the cellular protein content. Cultures were fixed with trichloroacetic acid and then stained for 30 min with 0.4% suforhodamine B dissolved in 1% acetic acid. Unbound dye was removed by acetic acid washes, and the protein-bound dye was extracted with an unbuffered Tris base (tris(hydroxy-methyl)aminomethane) for determination of absorbance at 570 nm in a 96-well microtiter plate reader. The experiments were carried out in duplicate. Each run entailed six to seven concentrations of the tested drugs. Data were analyzed with the median-effect plot (Chou, T.-C. & Talalay, P. T. (1984) Adv. Enzyme Regul. 22, 27-55) using a previously described computer program (Chou, J., & Chou T.-C. 1987, Dose-effect analysis with microcomputers: Quantitation of ED50, synergism, antagonism, low-dose risk, reception-ligand binding and enzyme kinetics, IBM-PC software and manual, Biosoft, Cambridge, U.K.).
(§4) Concerning Table 3, experiments were carried out using the cell lines DC-3F (parent hamster lung cells), DC-3F/ADII (moderate multidrug-resistant (MDR) cells) and DC-3F/ADX (very strong MDR cells).

Assay [2] deals with DC-3F hamster lung fibroblast cell line. Description: SRB cytotoxicity, DC-3F. The note with it: Table 3; read-out: IC50. It counts as cell-based. The protocol:
as §1, §2, §3

Assay [3] deals with DC-3F/ADX. The assay is described as follows: cells. It counts as cell-based, hamster. The note with it: Table 3; read-out: IC50. The protocol:
as §1, §2, §3, §4

Assay [4] has as its system CCRF-CEM/VBL100. The assay is described as follows: cells. It counts as cell-based, human. How it is done: as §2
(§5) The cells were cultured at an initial density of 5×10^4 cells/mL. They were maintained in a 5% CO2-humidified atmosphere at 37° C. in RPMI-1640 medium (GIBCO-BRL, Gaithersburg, Md.) containing penicillin (100 U/mL), streptomycin ([…]) (GIBCO-BRL) and 10% heat inactivate fetal bovine serum. Culture for cell suspension (such as for CCRF-CEM, P388 and sublines), were performed by the XTT-microculture tetrazonium method (Scudiero, D. A. et al., Cancer Res. 1988, 48, 4827-4833) in duplicate in 96-well microtiter plates.
(§6) 2′,3′-Bis(methoxy-4-nitro-5-sufophenyl)-5-[(phenylamino)carbonyl]2H-tetrazolium hyudroxide (XTT) was prepared at 1 mg/mL in prewarmed (37° C.) medium without serum. Phenazine methosulfate (PMS) and fresh XTT were mixed together to obtain 0.025 mM PMS-XTT solution (25 μL of the stock 5 mM PMS was added per 5 mL of 1 mg/mL XTT). Following a 72 h incubation, 50 μL of the assay aliquots were added to each well of the cell culture. After incubation at 37° C. for 4 h, absorbance at 450 nm and 630 nm was measured with a microplate reader (EL340, Bio-Tek Instruments, Inc., Winooski, Vt.).

The test system of assay [5] is CCRF-CEM/VM1. The assay is described as follows: cells. Format: cell-based, human. How it is done:
as §2, §5, §6

In assay [6] the test system is CCRF-CEM human T-cell acute lymphoblastic leukemia cell line. Description: XTT cytotoxicity (cell growth inhibition), CCRF-CEM. The protocol: as §1, §2, §5, §6
A general note: Tetrazolium dyes change colour on reduction, which living cells bring about.

[7] abbreviates: Table 2, CCRF-CEM/VLB, read-out: IC50.
[8] abbreviates: Table 2A, MDR cell line, read-out: IC50 (B).
The mark [9] stands for this setting: Table 6, single determinations, read-out: IC50.
[10] abbreviates: Table 7, CEM/VBL, read-out: IC50.
Where [11] appears, read: Table 2, CCR-CEM/VM-1, read-out: IC50.
The mark [12] stands for this setting: Table 2A, Topo II gene mutated cell line, read-out: IC50 (C).
The mark [13] stands for this setting: read-out: IC50 (A), Table 2A, parent cell line.
Setting [14] is: Table 6, read-out: IC50 (mean ± of determinations, in parentheses).

On to `CC(=Cc1csc(C)n1)C1CC=CCCCC(C)C(O)C(C)C(O)C(C)(C)C(O)CC(=O)O1` (stereo not drawn) [#2], for which the pIC50 was 5.34 in assay [1]; 4.99 in assay [2]; 5.32 in assay [3]; 5.20 in assay [4] (setting [7]); 5.20 in assay [4] (setting [8]); 5.20 in assay [4] (setting [9]). Also, the pIC50 was 5.20 in assay [4] (setting [10]); 4.36 in assay [5] (setting [11]); 4.36 in assay [5] (setting [12]); 4.36 in assay [5] (setting [9]); 4.85 in assay [6] (Table 2); 4.85 in assay [6] (Table 6, single determinations). The pIC50 in assay [6] (Table 7, CEM) was 4.85; in assay [6] (setting [13]), 4.85. The “(B)/(A) ratio (fold resistance >1, collateral sensitivity <1)” value in assay [4] (Table 2A) is given as “(0.44)^b”. Also, the “(C)/(A) ratio (fold resistance >1, collateral sensitivity <1)” value in assay [5] (Table 2A) was “(309)^a”.
As to `CC(=Cc1csc(C)n1)C1CC2OC2CC=CCCCCC(C)(C)CCC(=O)O1` (stereo not drawn) [#3], the pIC50 was 5.52 in assay [1]; 5.02 in assay [2]; 6.01 in assay [3]; 4.65 in assay [4] (setting [7]); 4.65 in assay [4] (setting [8]); 4.65 in assay [4] (setting [9]). Besides, the pIC50 was 4.65 in assay [4] (setting [10]); 4.94 in assay [5] (setting [11]); 4.94 in assay [5] (setting [12]); 4.94 in assay [5] (setting [9]); 3.57 in assay [6] (Table 2); 3.57 in assay [6] (Table 6, single determinations). For the same molecule, the pIC50 in assay [6] (Table 7, CEM) was 3.57; in assay [6] (setting [13]), 3.57. The “(B)/(A) ratio (fold resistance >1, collateral sensitivity <1)” value in assay [4] (Table 2A) is given as “(0.082)^b”. Also, the “(C)/(A) ratio (fold resistance >1, collateral sensitivity <1)” value in assay [5] (Table 2A) is “(0.043)^b”.
As for `C/C(=C\c1csc(C)n1)[C@@H]1C[C@@H]2O[C@@H]2CCC[C@H](C)[C@H](O)[C@@H](C)C(=O)C(C)(C)[C@@H](O)CC(=O)O1` [EPOTHILONE A NATURAL, epothilone A], the pIC50 in assay [1] is 7.91; in assay [2], 8.43; in assay [3], 7.27; in assay [4] (setting [7]) it was 7.57; in assay [4] (setting [14]), 7.70; in assay [4] (setting [9]), 7.68 and 7.72. Moreover, the pIC50 is 8.47 in assay [5] (setting [11]); 8.21 in assay [5] (setting [14]); 8.22 and 8.20 in assay [5] (setting [9]); 8.46 in assay [6] (Table 2); 8.62 and 8.51 in assay [6] (Table 6, single determinations); 8.57 in assay [6] (read-out: IC50 (mean ± of determinations, in parentheses), Table 6). For the same molecule, the “relative resistance (fold) vs parent cell line” value in assay [4] (Table 6) is “(7.4X)”; in assay [5] (Table 6), “(2.3X)”.
In the case of `C/C(=C\c1csc(C)n1)[C@@H]1C[C@@H]2O[C@@H]2CCC[C@H](C)[C@H](O)[C@@H](C)C(=O)C(C)(C)[C@@H](O)CC(=O)O1` [EPOTHILONE A SYNTHETIC, epothilone A], the pIC50 in assay [1] is 7.88; in assay [2] it was 8.45; in assay [3], 7.15; in assay [4] (setting [7]) it was 7.69; in assay [4] (Table 5, CCRF-CEM/VLB, single determinations, read-out: IC50), 7.82; in assay [5] (setting [11]) it was 8.47. The pIC50 is 8.54 in assay [6] (Table 2) and 8.68 in assay [6] (Table 5, single determinations).

The values are drawn from US6603023B2 (priority 1996, dated 2003).
